Assay results from ChEMBL document CHEMBL4602730, “In Vitro and in Vivo Evaluation of Membrane-Active Flavone Amphiphiles: Semisynthetic Kaempferol-Derived Antimicrobials against Drug-Resistant Gram-Positive Bacteria” (J Med Chem, 2020).
Values after ≈ are worked out from the molar mass of the structure shown. Active and inactive are the calls of the source. The rule behind the calls is not given here.

What was measured:
[1] = system: Staphylococcus aureus; experiment: Antibacterial activity against methicillin-resistant Staphylococcus aureus NCTC 10442 assessed as inhibition of bacterial growth incubated for 24 hrs by broth microdilution method; format: functional; conditions: NCTC 10442, 24 h
[2] = Induction of hemolysis in rabbit RBC incubated for 1 hr; format: cell-based, Oryctolagus cuniculus, Erythrocyte; conditions: rabbit red blood cells (erythrocytes)
[3] = system: Staphylococcus aureus; experiment: Antibacterial activity against methicillin-resistant Staphylococcus aureus N315 assessed as inhibition of bacterial growth incubated for 24 hrs by broth microdilution method; format: functional; conditions: N315, 24 h
[4] = system: Staphylococcus aureus; experiment: Antibacterial activity against Staphylococcus aureus ATCC 29213 assessed as inhibition of bacterial growth incubated for 24 hrs by broth microdilution method; format: functional; conditions: ATCC 29213, 24 h
[5] = system: Staphylococcus aureus; experiment: Induction of cytoplasmic membrane permeabilization in Staphylococcus aureus ATCC 29213 at 1 to 8 times MIC by SYTOX green dye based fluorescence assay; format: functional, organism-based
[6] = Cytotoxicity in human MDA-MB-231 cells assessed as reduction in cell viability incubated for 24 hrs by CCK8 assay; format: cell-based
[7] = system: Staphylococcus aureus; experiment: Antibacterial activity against Staphylococcus aureus ATCC 29213 assessed as induction of bacterial killing at 4 times MIC incubated for 1 hrs followed by re-plating of cultures and measured after 24 hrs by time kill study relative to control; format: functional
[8] = system: Staphylococcus aureus; experiment: Resistance index, ratio of MIC for antibacterial activity against Staphylococcus aureus ATCC 29213 passed over 19 cycles in presence of compound for period of 19 consecutive days by broth microdilution method to MIC for antibacterial activity against Staphylococcus aureus ATCC 29213; format: functional
[9] = system: Staphylococcus aureus; experiment: Induction of cytoplasmic membrane permeabilization in methicillin-resistant Staphylococcus aureus NCTC 10442 at 1 to 8 times MIC by SYTOX green dye based fluorescence assay; format: functional, organism-based
[10] = system: Staphylococcus aureus; experiment: Antibacterial activity against Staphylococcus aureus ATCC 29213 assessed as suppression of bacterial re-growth at 4 to 8 times MIC incubated for 0.5 to 24 hrs followed by re-plating of cultures and measured after 24 hrs by time kill study relative to control; format: functional, organism-based
[11] = system: Staphylococcus aureus; experiment: Antibacterial activity against Staphylococcus aureus ATCC 29213 assessed as bacterial cell killing at 4 times MIC incubated for 1 hrs followed by re-plating of cultures and measured after 24 hrs by time kill study relative to control; format: functional
[12] = system: Staphylococcus aureus; experiment: Antibacterial activity against Staphylococcus aureus ATCC 29213 assessed as induction of bacterial killing at 8 times MIC incubated for 0.5 hrs followed by re-plating of cultures and measured after 24 hrs by time kill study relative to control; format: functional
[13] = system: Pseudomonas aeruginosa; experiment: Antibacterial activity against Pseudomonas aeruginosa assessed as inhibition of bacterial growth incubated for 24 hrs by broth microdilution method; format: functional
[14] = system: Staphylococcus aureus; experiment: Antibacterial activity against Staphylococcus aureus ATCC 29213 infected in C57BL6 mouse assessed as reduction in bacterial count at 0.5% treated topically 4 times per day for 3 days starting from 1 day after infection relative to control; format: functional
[15] = system: Escherichia coli; experiment: Antibacterial activity against Escherichia coli assessed as inhibition of bacterial growth incubated for 24 hrs by broth microdilution method; format: functional
[16] = Cytotoxicity in human MDA-MB-231 cells assessed as cell viability at 32 times MIC incubated for 24 hrs by CCK8 assay relative to control; format: cell-based; conditions: read-out: Activity
[17] = system: Staphylococcus aureus; experiment: Induction of cell surface disruption in Staphylococcus aureus ATCC 29213 at 8 times MIC incubated for 2 hrs by scanning electron microscopy; format: functional, organism-based
[18] = system: Staphylococcus aureus; experiment: Induction of bacterial cell membrane integrity loss in Staphylococcus aureus ATCC 29213 incubated for 2 hrs propidium iodide and SYTO9 dye based LIVE/DEAD bacterial viability assay; format: functional, organism-based
[19] = Cytotoxicity in mouse corneal epithelial cells assessed as cell viability at 32 times MIC incubated for 24 hrs by CCK8 assay relative to control; format: cell-based; conditions: read-out: Activity

Row | Structure (SMILES) | MIC [1] | HC50 at 1 h [2] | MIC [3] | MIC [4] | other results
1 | CCCCCCCOc1ccc(-c2oc3cc(OCCCCCCC)cc(O)c3c(=O)c2O)cc1 | > 104 µM | > 414 µM | > 104 µM | > 104 µM | 
2 | CC(C)=CCOc1ccc(-c2oc3cc(OCC=C(C)C)cc(O)c3c(=O)c2O)cc1 | > 118 µM | > 473 µM | > 118 µM | > 118 µM | 
3 | COC(=O)[C@H](CCCNC(=N)N)NC(=O)COc1c(-c2ccc(OCC=C(C)C)cc2)oc2cc(OCC=C(C)C)cc(OCC(=O)N[C@@H](CCCNC(=N)N)C(=O)OC)c2c1=O | 1.8 µM (≈ 1.58 µg/mL) | > 228 µM | 1.8 µM (≈ 1.58 µg/mL) | 1.8 µM (≈ 1.58 µg/mL) | Activity [5]: Active; CC50 at 24 h [6]: > 50 µg/mL; LCK [7]: 3.21; Ratio [8]: <=4; Activity [9]: Active; Activity [10]: Active; Activity [11]: >=99.9%; LCK [12]: 3.22; MIC [13]: 12.5 to 25 µg/mL (≈ 14.2 to 28.4 µM); Activity [14]: 3.28 log10CFU; MIC [15]: 12.5 to 25 µg/mL (≈ 14.2 to 28.4 µM); viability at 24 h, 32 times MIC [16]: 75%; Activity [17]: Active; Activity [18]: Active; viability at 24 h, 32 times MIC [19]: 70.1%
4 | CCN(CC)CCCCCOc1c(-c2ccc(OCC=C(C)C)cc2)oc2cc(OCC=C(C)C)cc(O)c2c1=O | 22.2 µM (≈ 12.5 µg/mL) | 99 µM | 22.2 µM (≈ 12.5 µg/mL) | 22.2 µM (≈ 12.5 µg/mL) | 
5 | CC(C)=CCOc1ccc(-c2oc3cc(OCC=C(C)C)cc(O)c3c(=O)c2OCCCN2CCSCC2)cc1 | > 88.4 µM | > 354 µM | > 88.4 µM | > 88.4 µM | 
6 | CC(C)=CCOc1ccc(-c2oc3cc(OCC=C(C)C)cc(O)c3c(=O)c2OCCCN(C)C)cc1 | 12.3 µM (≈ 6.24 µg/mL) | 228 µM | 12.3 µM (≈ 6.24 µg/mL) | 12.3 µM (≈ 6.24 µg/mL) | 
7 | CCCC[N+](C)(CCCC)CCCOc1c(-c2ccc(OCC=C(C)C)cc2)oc2cc(OCC=C(C)C)cc(O)c2c1=O | 34.1 µM | 46.9 µM | 17.1 µM | 17.1 µM | 
8 | CCN(CC)CCCNC(=O)COc1c(-c2ccc(OCC=C(C)C)cc2)oc2cc(OCC=C(C)C)cc(OCC(=O)NCCCN(CC)CC)c2c1=O | > 65.5 µM | > 262 µM | > 65.5 µM | > 65.5 µM | 
9 | CCCCCOc1ccc(-c2oc3cc(OCCCCC)cc(O)c3c(=O)c2O)cc1 | > 117 µM | > 469 µM | > 117 µM | > 117 µM | 
10 | CC(C)=CCOc1ccc(-c2oc3cc(OCC=C(C)C)cc(OCC(=O)NCCCN(C)C)c3c(=O)c2OCC(=O)NCCCN(C)C)cc1 | 70.7 µM (≈ 50 µg/mL) | > 283 µM | 70.7 µM (≈ 50 µg/mL) | 35.4 µM (≈ 25 µg/mL) | 
11 | CCCN(CCC)CCCOc1c(-c2ccc(OCC=C(C)C)cc2)oc2cc(OCC=C(C)C)cc(O)c2c1=O | > 88.7 µM | > 355 µM | > 88.7 µM | > 88.7 µM | 
12 | CC(C)=CCOc1ccc(-c2oc3cc(OCC=C(C)C)cc(O)c3c(=O)c2OCCC[N+](C)(C)C)cc1 | 4.8 µM | 77.3 µM | 2.4 µM | 4.8 µM | 
13 | CC(C)=CCOc1ccc(-c2oc3cc(OCC=C(C)C)cc(O)c3c(=O)c2OCCCN2CCN(C)CC2)cc1 | 22.2 µM (≈ 12.5 µg/mL) | 83.3 µM | 11.1 µM (≈ 6.25 µg/mL) | 22.2 µM (≈ 12.5 µg/mL) | 
14 | CCCCCOc1ccc(-c2oc3cc(OCCCCC)cc(O)c3c(=O)c2OCCCN(CC)CC)cc1 | 23.2 µM (≈ 12.5 µg/mL) | 284 µM | 11.6 µM (≈ 6.26 µg/mL) | 11.6 µM (≈ 6.26 µg/mL) | 
15 | COC(=O)[C@H](CCCNC(=N)N)NC(=O)[C@H](CCCNC(=N)N)NC(=O)COc1c(-c2ccc(OCC=C(C)C)cc2)oc2cc(OCC=C(C)C)cc(O)c2c1=O | 3.9 µM (≈ 3.15 µg/mL) | 82.5 µM | 3.9 µM (≈ 3.15 µg/mL) | 3.9 µM (≈ 3.15 µg/mL) | 
16 | CCCCN(CCCC)CCCOc1c(-c2ccc(OCC=C(C)C)cc2)oc2cc(OCC=C(C)C)cc(O)c2c1=O | > 84.5 µM | > 338 µM | > 84.5 µM | > 84.5 µM | 
17 | CCCCCCCCCOc1ccc(-c2oc3cc(OCCCCCCCCC)cc(O)c3c(=O)c2O)cc1 | > 92.8 µM | > 371 µM | > 92.8 µM | > 92.8 µM | 
18 | CCN(CC)CCOc1c(-c2ccc(OCC=C(C)C)cc2)oc2cc(OCC=C(C)C)cc(O)c2c1=O | 95.8 µM (≈ 50 µg/mL) | > 383 µM | 95.8 µM (≈ 50 µg/mL) | 95.8 µM (≈ 50 µg/mL) | 
19 | CCCCCNCCCOc1c(-c2ccc(OCC=C(C)C)cc2)oc2cc(OCC=C(C)C)cc(O)c2c1=O | 22.7 µM (≈ 12.5 µg/mL) | 69.7 µM | 11.4 µM (≈ 6.27 µg/mL) | 45.5 µM (≈ 25 µg/mL) | 
